Experimental data published in patent publication US10835611B2, “Neurotherapeutic nanoparticle compositions comprising leukemia inhibitory factor” (Yale University, priority 2012, dated 2020).

B1: BDNF: brain-derived neurotrophic factor (protein, UniProt P23560 19-247, looked up)
Neurotrophic factor BDNF …: APMKEANIRGQGGLAYPGVRTHGTLESVNGPKAGSRGLTSLADTFEHVIEELLDEDQKVRPNEENNKDADLYTSRVMLSSQVPLEPPLLFLLEEYKNYLDAANMSMRVRRHSDPARRGELSVCDSISEWVTAADKKTAVDMSGGTVTVLEKVPVSKGQLKQYFYETKCNPMGYTKEGCRGIDKRHWNSQCRTTQSYVRALTMDSKKRIGWRFIRIDTSCVCTLTIKRGR

Legend:
[1] = tested on: primary rat E14 VM tissue; experiment: Anti-Thy-1 directed BDNF or 7,8-DHF nanoparticles versus free factor in primary rat E14 VM cultures; type: cell-based; conditions: 7 days in vitro
Procedure: To compare the effect of brain-derived neurotrophic factor (BDNF), or the BDNF agonist 7,8-dihydroxy flavone (7,8-DHF), when in a nano-particulate formulation targeted to Thy-1, versus free, primary rat E14 VM tissue was mixed with 100 μl of nanoparticle solution (0.05 mg; 0.1 mg; 1.0 mg nanoparticles/ml), or with free growth factor (10 nM; 100 nM; 1 μM; 10 μM) immediately prior to plating. After first confirming presence of Thy-1 antigen on the surface of TH+ neurons (data not shown), anti-Thy-1 decorated nanoparticles were prepared as either empty; or BDNF-nanoparticles; or 7,8 DHF-nanoparticles. Cultures were fixed after 7 days in vitro and analysed via immunocytochemistry for tyrosine hydroxylase positive cells. […] This is shown for 7,8 DHF-nanoparticles in FIG. 11A and FIG. 11B where the dose-response curve is similar to that reported by Jang et al (Jang et al, Proc. Natl. Acad. Sci. USA, 2010), with the exception of the high dose (10 μM) decline observed here.

[2] = tested on: dopaminergic neurons in E14 VM cultures; experiment: Dopaminergic apoptosis (TH, cleaved caspase-3, condensed nucleus) in E14 VM monolayer cultures; type: cell-based, rat
Procedure: A subset of tyrosine hydroxylase neurons co-localised with cleaved caspase-3 and a condensed nucleus, both markers of apoptotic cells. […] Immunocytochemical analysis was performed to determine whether LIF treatment (soluble or targeted nanoparticles) decreased the number of apoptotic dopaminergic neurons in these cultures.
E14 VM monolayer cultures, treated with soluble LIF or LIF/empty nanoparticles were fixed after 2, 3 or 5 days.

[3] = tested on: dopaminergic neurons in E14 VM cultures; experiment: Growth medium supplemented with soluble LIF, TH+ neuron count in E14 VM cultures; type: cell-based, rat
Procedure: The VM of E14 rat foetuses was dissected and dissociated in standard conditions. Primary E14 VM tissue was dissociated and grown as monolayer cultures. After plating cells were chronically treated with soluble LIF in their growth medium ranging from 0.1 ng/ml to 100 ng/ml.

[4] = tested on: E14 VM neural progenitor cells; experiment: E14 VM neurosphere expansion with soluble LIF, subsequent differentiation in monolayer culture; type: cell-based, rat; conditions: 0.1 ng/ml LIF during neurosphere expansion; monolayer without LIF
Procedure: To investigate the effect of LIF treatment on the differentiation of E14 VM, tissue was grown as neurospheres in expansion medium with or without 0.1 ng/ml soluble LIF. Primary ventral midbrain tissue was expanded in medium containing the mitogens EGF and FGF-2 for 5 days. These neurospheres were then dissociated into single cells and plated in monolayer culture in the absence of LIF. After 5 days of growth these cultures were analysed via immunocytochemistry for neural and astroglial differentiation (FIGS. 6A and 6B, showing morphology + or − LIF). The presence of LIF during the expansion of E14 VM had no effect on subsequent differentiation (FIG. 7 showing results after 5 and 10 days).

[5] = tested on: dopaminergic neurons in E14 VM cultures; experiment: LIF treatment during dissociation of E14 VM tissue, TH+ neuron count in monolayer culture; type: cell-based, rat; conditions: tissue dissociated in 0.1 ng/ml LIF
Procedure: The VM of E14 rat foetuses was dissected and dissociated in medium with or without 0.1 ng/ml soluble LIF. The tissue was then plated in monolayer culture and grown for 2, 3 or 5 days prior to fixing. Dissociated cells were seeded in monolayer cultures and fixed after 2, 3 or 5 days in vitro (DIV).

Molecule | longest neurite length [1] | number of primary neurites [1] | serotonergic cells versus dopaminergic cells [1] | level of dopaminergic apoptosis ([2]; 2 days in vitro) | dopaminergic apoptosis ([2]; 3 days in vitro) | number of TH positive neurons ([3]; all LIF dosages above 0.1 ng/ml (up to 100 ng/ml)) | number of tyrosine hydroxylase positive neurons ([3]; growth medium with 0.1 ng/ml LIF, 3 and 5 days in vitro) | subsequent neural and astroglial differentiation [4] | number of TH+ neurons ([5]; 3 and 5 days in vitro) | number of TH+ neurons ([5]; 2 days in vitro)
O=c1cc(-c2ccccc2)oc2c(O)c(O)ccc12 [7,8-DHF, 7,8-dihydroxy flavone, reference compound] | neither soluble 7,8-DHF nor 7,8-DHF-nano altered | neither soluble 7,8-DHF nor 7,8-DHF-nano altered | constant ratio |  |  |  |  |  |  | 
LIF: leukaemia inhibitory factor, member of the IL-6 family of cytokines, used soluble in medium |  |  |  | significant reduction | did not reach statistical significance | no significant effect | significantly increase | no effect | effect was lost | significantly more
B1 | significant increase | significant increase | constant ratio |  |  |  |  |  |  | 
